Results taken from US7989466B2, “Methods to inhibit or augment an inflammatory response” (Cambridge Enterprise Limited, priority 1999, dated 2011).
Read-outs that look alike come from different tables or passages of the source. Marks after values point to notes of the source that are not given here. Positions of bridges follow the written chain, without caps; N, C: chain ends. No end group written: not given here. *: point of attachment. Biotin = O=C1N[C@H]2[C@H](CS[C@H]2CCCCC(=O)*)N1

Assays:
[1] = tested on: MCP-1 induced THP-1 migration; experiment: THP-1 trans-well migration assay, MCP-1 as chemoattractant; format: cell-based, human
Protocol: (§1) To determine whether an agent inhibits a chemokine-induced activity, such as macrophage recruitment, varying amounts of the agent are mixed with cells in the presence of a known chemoattractant. For example, a range of known concentrations of an agent, e.g., a chemokine peptide, is incubated with a defined number (e.g., 10^4-10^6) of human THP-1 monocyte cells in individual wells of the top compartment of a trans-well plate. Chemokine (such as MCP-1, MIP1α, IL8 or SDF-1α), at a concentration known to cause significant migration of THP-1 cells in the trans-well migration assay, is placed in the lower compartment (FIG. 1). Cells are then incubated at 37° C. for a period sufficient to allow migration, e.g., 4 hours. After incubation, the cells are gently removed from the top of the filter with a pipette, 20 μl of 20 mM EDTA in simple PBS is added into each top well, and incubated for 20 minutes at 4° C. The filter is carefully flushed with media using a gentle flow, and removed. A standard curve consisting of a two-fold dilution series of THP-1 cells (in 29 μl) is prepared to accurately quantify the number of cells that have migrated. Migrated cells are stained with 3 μl of MTT stock dye solution which is added directly into each well (5 mg/ml in RPMI-1640 without phenol red, Sigma Chemical Co.) and incubated at 37° C. for 4 hours. The media is carefully aspirated from each well, and the converted dye is solubilized by 20 μl of DMSO. Absorbance of converted dye is measured at a wavelength of 595 nm using an ELISA plate reader. The number of migrated cells in each well is then determined by interpolation of the standard curve (see also Imai et al., J. Biol. Chem., 272, 15036 (1997)).
(§2) For this assay, THP-1 cells were maintained at a density of 4×10^5 cells per ml in RPMI-1640 supplemented with 10% fetal calf serum+20 μM 2-mercaptoethanol. Chemotaxis was induced in a 96-well disposable chemotaxis chamber fitted with a […] polycarbonate filter (PVP free, ChemoTX, Neuroprobe Inc., Cabin John). Twenty-nine μl of chemoattractant (recombinant human chemokine; 50 ng/ml, i.e., 5.9 nM) or control (100 ng/ml TGFβ) was added to the lower compartment of each well. The framed filter was aligned with the holes in the corner of the filter frame and placed over the wells. Five×10^4 THP-1 cells in 25 μl of RPMI-1640 were added to the upper compartment. Peptides were dissolved in Milli Q water and then serially diluted in culture medium. In most cases, the serially diluted peptides were added to the upper compartment of the chemotaxis chamber. The chamber was incubated at 37° C. in a humidified atmosphere of 5% CO2 for 4 hours.
(§3) After incubation, the cells were gently removed from the top of the filter with a pipette, 20 μl of 20 mM EDTA in PBS was added into each top well, and the mixture was incubated for 20 minutes at 4° C. The filter was then carefully flushed with media using a gentle flow, and removed. A standard curve was prepared to accurately quantify the number of THP-1 cells that had migrated. The curve was based on a two-fold dilution series of THP-1 cells (top standard 100,000 cells in 29 μl). Cells which had migrated, and in separate wells, the cells in the standards, were stained with 3 μl of MTT stock solution which was added directly into each well (5 mg/ml in RPMI 1640 without phenol red, Sigma Chemical Co.) and incubated at 37° C. for 4 hours. The media was carefully aspirated from each well, and the converted dye was solubilized by 20 μl of DMSO. Absorbance of converted dye was measured at a wavelength of 595 nm using an ELISA plate reader. The number of cells that had migrated in each well was determined by interpolation of the standard curve.

[2] = tested on: chemokine-induced THP-1 migration; experiment: THP-1 trans-well migration assay, panel of chemokines (MCP-1, MIP1α, IL-8, SDF1α); format: cell-based, human; conditions: for effect on THP-1 migration induced by the chemokine panel, in words / Chemokine antagonist: MCP-1, MIP1α; for effect on THP-1 migration induced by the chemokine panel, in words: IL-8, SDF1α; for CC SPECIFICITY: average inhibitory ED50 versus SDF1 and IL8 divided by average inhibitory ED50 versus MCP-1 and MIP1α; for Chemokine antagonist: active against at least one of IL-8, SDF-1α
[3] = tested on: MIP1α induced THP-1 migration; experiment: THP-1 trans-well migration assay, MIP1α as chemoattractant; format: cell-based, human; conditions: n.s. = no statistically significant inhibition (p > 0.05); read-out: ED50 versus MIP1α, inhibition of THP-1 migration
Protocol: as §1, §2, §3

[4] = tested on: IL8 induced THP-1 migration; experiment: THP-1 trans-well migration assay, IL-8 as chemoattractant; format: cell-based, human; conditions: for EC50: n.s. = no statistically significant inhibition (p > 0.05), read-out: ED50 versus IL8, inhibition of THP-1 migration
Protocol: as §1, §2, §3

[5] = tested on: TGFβ1 induced THP-1 migration; experiment: THP-1 trans-well migration assay, TGFβ1 as non-chemokine control; format: cell-based, human; conditions: n.s. = no statistically significant inhibition (p > 0.05)
Protocol: Any method suitable for counting cells can be used, for example, counting with a hemocytometer, incubation of the cells with MTT (see above), or FACS analysis. A negative control assay is also performed, using TGF-β or another non-chemokine chemoattractant (e.g., IL1β or TNFα). To assess whether the agent is cytotoxic, the same concentrations of agent are incubated with THP-1 cells. Agents which 1) are not cytotoxic at levels which inhibit migration, 2) are ineffective at inhibiting the negative control-induced migration, and 3) reduce or inhibit chemokine-induced THP-1 migration, are agents which fall within the scope of the invention.
Chemotaxis was induced in a 96-well disposable chemotaxis chamber fitted with a […] polycarbonate filter (PVP free, ChemoTX, Neuroprobe Inc., Cabin John). […] The framed filter was aligned with the holes in the corner of the filter frame and placed over the wells. […] Peptides were dissolved in Milli Q water and then serially diluted in culture medium. In most cases, the serially diluted peptides were added to the upper compartment of the chemotaxis chamber. The chamber was incubated at 37° C. in a humidified atmosphere of 5% CO2 for 4 hours.
After incubation, the cells were gently removed from the top of the filter with a pipette, 20 μl of 20 mM EDTA in PBS was added into each top well, and the mixture was incubated for 20 minutes at 4° C. The filter was then carefully flushed with media using a gentle flow, and removed. […] The curve was based on a two-fold dilution series of THP-1 cells (top standard 100,000 cells in 29 μl). […] The media was carefully aspirated from each well, and the converted dye was solubilized by 20 μl of DMSO.

[6] = tested on: SDF-1α induced THP-1 migration; experiment: THP-1 trans-well migration assay, SDF-1α as chemoattractant; format: cell-based, human; conditions: n.s. = no statistically significant inhibition (p > 0.05); read-out: ED50 versus SDF-1α, inhibition of THP-1 migration
Protocol: as §1, §2, §3

[7] = tested on: chemokine receptors on THP-1 cells; experiment: Binding to chemokine receptors on THP-1 cells; parameters: species or system human
Protocol: In general, specific binding is calculated as the amount of labeled agent bound in the absence of cold competitor minus the amount of labeled agent bound in the presence of cold competitor. The amount of specific binding in the presence of varied amounts of cold competitor can be used to determine the association constant for the agent, as well as the number of binding sites on the cell for the agent, using, for example, Scatchard Analysis. The agent may be labeled by radiolabeling (e.g., iodination) or with a suitable biochemical tag (e.g., biotin) or by addition of a photoactivatable crosslinking group. Agents with an association constant lower than 100 μM (i.e., which bind more strongly than an agent with an association constant of 100 μM) and which have at least about 2,500, preferably at least about 10,000, and more preferably greater than 25,000, binding sites per cell for at least one cell type which expresses a chemokine receptor, fall under the scope of this invention. THP-1 cells have at least about 5,000 MCP-1 receptors/cell.
For example, monocytes are suspended in RPMI 1640 medium without bicarbonate containing 0.2% bovine serum albumin and 0.1% azide. Radiolabeled chemokine peptide is incubated with 1-2×10^6 cells, e.g., THP-1 cells, in the presence or absence of increasing concentrations of unlabeled chemokine (MCP-1, MCP-3, MCP-4, RANTES or MIP-1α) for 15 minutes at 37° C. in a 96-well plate in a final volume of 0.2 ml (e.g., PBS+0.5% FCS). After the incubation, 0.5 ml of ice-cold wash buffer (20 mM Tris, 0.5 M NaCl, pH 7.4) is added, and cells are collected onto a polyethyleneimine-treated Whatman GF/C filter using a Brandall cell harvester. Filters are washed with 4 ml of cold wash buffer, and the radioactivity bound to the filters is counted in a γ-counter.
For Scatchard analysis, the absorbance readings at 450 nm were calibrated, by reference to a standard curve in which known amounts of labeled peptide were coupled to derivatized sepharose beads (activated thiol-sepharose 4B; Sigma T8512) via the cysteine residue in each peptide. Briefly, known amounts (1 fmol to 1 pmol) of biotin-labeled peptide were incubated with 1 mg of activated thiol-sepharose beads in 100 μl of PBS at 37° C. for 1 hour. Free activated thiols were then blocked by addition of cysteine to a final concentration of 10 mM. The peptide-conjugated beads were then washed 5 times in PBS and treated exactly as for the cells described above. The absorbance at 450 nm obtained when a known amount of peptide was coupled to the beads was used to construct a standard curve which was used to convert the absorbance readings obtained with cells into number of molecules of labeled peptide which had bound.

[8] = Homo sapiens, THP-1, agent with the cells in the upper compartment, n.s. = no statistically significant inhibition (p > 0.05), read-out: ED50 versus MCP-1, inhibition of THP-1 migration
[9] = average inhibitory ED50 for inhibition of THP-1 migration induced by each of the chemokines, read-out: AVERAGE ED50
[10] = agent with the cells in the upper compartment, n.s. = no statistically significant inhibition (p > 0.05), read-out: ED50 versus MCP-1, inhibition of THP-1 migration

## CCC1(c2ccccc2)CCC(=O)NC1=O (centres unmarked) [Glutethimide, reference compound]
[1]; Homo sapiens, THP-1, read-out: ED50 versus MCP-1, inhibition of THP-1 migration
  EC50: 50 µM

## Cc1cc(C(C)(C)C)c(O)c(C)c1CC1=NCCN1 [Oxymetazoline, reference compound]
[1]; [8]
  EC50: 75 µM

## O=C1NC(=O)C(c2ccccc2)(c2ccccc2)N1 [Phenytoin, reference compound]
[1]; [8]
  EC50: 10 µM

## COC(=O)[C@@H]1[C@H]2C[C@H]3c4[nH]c5ccccc5c4CCN3C[C@@H]2CC[C@@H]1O [Yohimbine, reference compound]
[1]; Homo sapiens, THP-1, read-out: ED50 versus MCP-1 induced chemotaxis of THP-1
  EC50: 0.03 µM

## COC(=O)[C@H]1[C@H]2C[C@H]3c4[nH]c5ccccc5c4CCN3C[C@H]2CC[C@@H]1O [α-Yohimbine, reference compound]
[1]; read-out: ED50 versus MCP-1 induced chemotaxis of THP-1
  EC50: 0.5 µM

## -CQVWKQKPDAC-- (disulfide 1-11; not fully specified (some residues, C-terminus); printed as -CQVWKQKPDAC--; also: CRD: cyclic reverse-D derivative, D-residues shown in italics, not given here) [CRD-Cys13pep3[3-12]]
[2]; [9]
  EC50: 0.8 µM

## APG [reference compound]
[2]
  effect on THP-1 migration induced by the chemokine panel, in words: None of these significantly inhibited migration

## CADPKQKWVQ [Peptide 3[3-12]]
[3]
  EC50: 7 µM
[4]
  EC50: 9 µM
[1]; [10]
  EC50: 8 µM
[5]
  ED50 versus TGFβ1, inhibition of THP-1 migration: n.s.
[6]
  EC50: 9 µM

## CLDPKQKWIQC [unlabeled peptide]
[1]; [10]
  EC50: ~9 µM

## EICADP [Peptide 3[1-6]]
[3]
  EC50: 25 µM
[4]
  EC50: 17 µM
[2]; THP-1 migration, read-out: ED50 for inhibiting the CC chemokines
  EC50: ~30 µM
[2]; [9]
  EC50: 24 µM
[2]
  CC SPECIFICITY: 0.7
[1]; [10]
  EC50: 33 µM
[5]
  ED50 versus TGFβ1, inhibition of THP-1 migration: n.s.
[6]
  EC50: 19 µM

## EICADPKQKWIQ [Ile11peptide 3]
[3]
  EC50: 4 µM
[4]
  EC50: 2 µM
[2]
  selectivity of IL-8 over other chemokines: about 3 fold
  CC SPECIFICITY: 0.9
[2]; [9]
  EC50: 5 µM
[1]; [10]
  EC50: 6 µM
[5]
  ED50 versus TGFβ1, inhibition of THP-1 migration: n.s.
[6]
  EC50: 7 µM

## EICADPSEEWVQ [Ser7Glu8Glu9pep3]
[3]
  EC50: 2 µM
[4]
  EC50: 9 µM
[2]
  selectivity ratio for MIP1α versus all other chemokines: about 3 fold
[2]; [9]
  EC50: 6 µM
[1]; [10]
  EC50: 7 µM
[5]
  ED50 versus TGFβ1, inhibition of THP-1 migration: n.s.
[6]
  EC50: 5 µM

## ELRVIESGPHCANTEI [Pep2[IL8]]
[7]
  AVERAGE ED50, peptide 2 family: estimated ka for binding to THP-1 cells: 1-10^e μM

## GGR [reference compound]
[2]
  effect on THP-1 migration induced by the chemokine panel, in words: None of these significantly inhibited migration

## KAK
[2]
  Chemokine antagonist: +

## KEN
[4]; tripeptide at 100 μM, mean ± range, dash = no statistically significant reduction in migration
  percentage inhibition of migration induced by IL-8: 70 ± 4%
[2]
  CC SPECIFICITY: <0.1
[2]; footnote f, KQK MCP-1, SEE MIP1α, KLK SDF1, KEN IL8, read-out: ED50 of a tripeptide against the one chemokine it is highly specific for
  EC50: 0.1 to 10 µM
[1]; tripeptide at 100 μM, mean ± range of two experiments, dash = no statistically significant reduction in migration
  percentage inhibition of migration induced by MCP-1: 21 ± 2^ %

## KNK
[2]
  Chemokine antagonist: +++

## RGD [reference compound]
[2]
  effect on THP-1 migration induced by the chemokine panel, in words: None of these significantly inhibited migration

## TTT [reference compound]
[2]
  effect on THP-1 migration induced by the chemokine panel, in words: None of these significantly inhibited migration

## WGQ
[1]; [10]
  EC50: ~1.75 µM

## WIQ
[2]; [9]
  EC50: 2 µM
[2]
  CC SPECIFICITY: 1.0

## n′-CLDPKQKWIQC-c′ (Biotin-CLDPKQKWIQC; cysteine pairing not given here) [labeled peptide, N-terminal biotin conjugate]
[1]; [10]
  EC50: ~4 µM
